Legend:
MCF7 cells = test: SA-β-galactosidase colorimetric assay on Tamoxifen-treated MCF7; type: cell-based, Homo sapiens
Method: Previously treated cells were fixed according to the protocols established by the supplier (Cell Signaling). The images were acquired using an optical microscope (Leica) with 5× and 10× magnification (MAG) or the phase microscopy EVOS XL Core at 10× MAG and analyzed using the ImageJ software. The mean signal intensity was then normalized for the total number of cells.
MCF7 cell line (ATCC; HTB-22, Homo sapiens, breast cancer) was purchased from ATCC; cells were grown in MEM medium (Corning, New York, USA, #15-010-CVR) supplemented with 10% FBS (Gibco, Invitrogen, Carlsbad, CA, USA, #10270106), 1% glutamine (Corning #25005-CI), 1% penicillin and streptomycin (Corning #30002-CI). Cells were incubated at 37 °C with 5% CO2. […] Cell mortality and vitality curves after treatment with K5 (10 μM, orange) or Vehicle (DMSO, grey) were monitored using the Incucyte live-cell Analysis system (Sartorius, Goettingen, Germany). The estimated Senolytic index (SI) was calculated as the ratio between the EC50 in proliferating cells and the EC50 in senescent cells, extrapolated using GraphPad Prism 10 software.
β-galactosidase colorimetric assay. […] The images were analyzed using the ImageJ software, quantifying the colorimetric signal emitted by each cell. […]

Drosophila melanogaster [1] = test: Drosophila melanogaster lifespan assay; type: in vivo
Method: Experiments were carried out with wild‐type Canton‐S Drosophila melanogaster, originating (Stock #64349) from the Bloomington Drosophila Stock Centre (Indiana University). Flies were reared on Nutri‐Fly Bloomington Formulation food medium (Genesee Scientific). Vials containing only fresh food were alternated with vials containing food supplemented with K5. The number of living flies was counted every 2–3 days. Detailed protocols are reported in the extended section.
Drosophila melanogaster maintenance and lifespan assays. All experiments were carried out with wild-type Canton-S Drosophila melanogaster. Canton-S flies originated (Stock #64349) from the Bloomington Drosophila Stock Centre (Indiana University, Bloomington, IN, USA). Flies were reared on Nutri-Fly Bloomington Formulation food medium (Genesee Scientific, El Cajon, CA, USA) prepared using 176 g of Nutri-Fly per liter of distilled H2O. After cooling to 70°C, 4.8 mL of propionic acid (Merck KGaA, Darmstadt, Germany) per liter of food was added. Flies were maintained at constant temperature (25.0 ± 0.2°C) with 60% relative humidity on a 12 h:12 h 300 lux light-dark cycle generated by a 4000°K LED lamp (Fridge 1.5W, Ecoman Italia S.r.l., Frascati, Italy).
For lifespan assays, newly enclosed Drosophila melanogaster (1 to 2 days old) were collected and placed separately in vials (each containing 10 male and 10 female flies). Two experiments were performed. In the first experiment, 300 flies were randomly divided into three groups (CTRL, K5 10 µg/mL, and K5 100 µg/mL). Vials containing only fresh food (Nutri-Fly Bloomington Formulation food medium) were alternated 3 times a week with vials containing food supplemented with K5. The K5 was dissolved in DMSO and then diluted 1:10 in corn oil. 5 µL of corn oil (containing 0, 10 µg, or 100 µg of K5) was added to each mL of freshly prepared Nutri-Fly Bloomington Formulation food medium. In the second experiment, 900 flies were divided by sex into CTRL group and K5 10 µg/mL treated group. […] All experiments counted the number of living flies every 2–3 days.

Drosophila melanogaster [2] = test: Drosophila melanogaster gene expression analysis (qRT-PCR); type: in vivo; conditions: K5 10 μg/mL
Method: Total RNA from Drosophila melanogaster was isolated using a TripleXtractor reagent kit (Grisp Research Solution, Porto, Portugal). Gene expression of Dacapo (Dap), Unpaired 2 (Upd2), Unpaired 3 (Upd3), and Glyceraldehyde‐3‐phosphate dehydrogenase 1 (Gapdh1) was analyzed by qRT‐PCR. Details are reported in the extended methods.

Cc1ccccc1-n1c(=O)n(Cc2ccccc2)c(=O)c2[nH]cnc21 [Compound K5, 1-benzyl-3-(2-methylphenyl)-7H-purine-2,6-dione]
SA-β-gal positive senescent cells (MCF7 cells; MCF7, TAM 10 μM 96 h then K5 10 μM 24 to 96 h, Vehicle 40%): 10%
reduced SA-β-gal (MCF7 cells; Tamoxifen-induced senescent MCF7): 30%
effect on lifespan, preliminary treatment (Drosophila melanogaster [1]; K5 10 μg/mL and 100 μg/mL, 100 flies per group, p = 0.034): significant overall difference in lifespan
increase of average lifespan compared to controls (Drosophila melanogaster [1]; K5 10 μg/mL in food from day 20, n = 884): 6.63%
average lifespan of treated flies (Drosophila melanogaster [1]; K5 10 μg/mL in food from day 20, n = 884, controls 47.54 days ± 0.74 SE): 50.69 days
Dap relative expression vs controls (Drosophila melanogaster [2]): no significant difference
Upd2 relative expression vs controls (Drosophila melanogaster [2]; p < 0.05): significantly reduced
Upd3 relative expression vs controls (Drosophila melanogaster [2]; p < 0.05): significantly reduced
